Test results taken from patent publication US12276667B2, “Isolation and characterization of the nuclear proteome” (Altius Institute for Biomedical Sciences, priority 2018, dated 2025).

Tested on: IKZF1
Test: Nuclear proteome by mass spectrometry (DIA) after cell treatment with thalidomide
Type: cell-based
Settings: cells treated with thalidomide; FIG. 14
Description: First, cells of interest are isolated. This is done by harvesting, homogenizing, washing, and then pelleting the cells of interest. The pellet is then resuspended in a buffer A not comprising polycations (e.g., no spermidine or spermine). NP40 detergent solution is then added to isolate nuclei and cells are spun and are pelleted. Optionally, prior to salt extraction, the pellet is treated with MNase at 37° C. for 5 minutes and is quenched with EDTA. The pellet is resuspended in buffer A and […] NaCl, and then is incubated at 4° C. for 30 minutes. The insoluble chromatin is pelleted for later analysis. The supernatant is used for further analysis.
400 ul of 01.% PPS is added to the nuclear pellet of EXAMPLE 1, which is then sonicated at a setting output of 5 for 30 seconds and a protein concentration is determined using A280 reading. The sample is then boiled at 99 C for 5 minutes, is allowed to cool at room temperature, and is then briefly spun down. DTT is added for a final concentration of 5 mM, and is incubated at 60° C. for 30 minutes. Next, IAA is added for a final concentration of 15 mM, and is incubated at room temperature in the dark for 30 minutes. […]
Data were acquired on a ThermoFisher QExactive-HF instrument operating in DIA mode. […] Peptide quantification was performed using EncyclopeDIA software. […]

O=C1CCC(N2C(=O)c3ccccc3C2=O)C(=O)N1 (stereo not shown) [thalidomide]
pharmacological degradation of IKZF1 after cell treatment: degraded
